Data published in patent publication US9687539B2, “CD4+ T survivin epitopes and uses thereof” (Commissariat a I'Energie Atomique, priority 2005, dated 2017).
Where a chain is given by its changes, count along the chain named. pIC50: −log10 of the molar value. No end group written: not given here.

How the values were obtained:
[1] = biological target: HLA-DRB4 (DRB4*0101) (Homo sapiens, UniProt P01903+P13762, G164S); test: Competitive HLA II/peptide binding assay, HLA-DRB4; details: competition with biotinylated tracer; 3 independent experiments
[2] = biological target: HLA-DR3 (DRB1*0301) (Homo sapiens, UniProt P01903+P01911, A100K/A102G/A103R/A169T/F55Y/I96L/K41T/L162R/M171V/P40S/Q125H/Q178H/Q39Y/R42S/S66N/T106N/T262R/W38E/Y61H); test: biochemical; details: competition with biotinylated tracer; 3 independent experiments; read-out: Binding activity DR3 (IC50)
[3] = biological target: HLA-DR4 (DRB1*0401) (Homo sapiens, UniProt P01903+P01911, A100K/A169T/F76Y/I96L/K127E/L162R/M171V/N62H/P40V/Q125Y/R42H/S133A/S149N/S66Y/V115G/V209L/W38E); test: Competitive HLA II/peptide binding assay, HLA-DR4; details: competition with biotinylated tracer; 3 independent experiments
[4] = biological target: HLA-DRB5 (DRB5*0101) (Homo sapiens, UniProt P01903+Q30154); test: Competitive HLA II/peptide binding assay, HLA-DRB5; details: competition with biotinylated tracer; 3 independent experiments
[5] = test system: 12 predominant HLA II molecules; test: Binding to the 12 predominant HLA II molecules, summary; design: species or system human; details: for No. of molecules fixed: number of the 12 predominant HLA II molecules bound (IC50 < 1000 nM)
Description: The assays for binding to HLA II molecules are competitive binding assays with immunoenzymatic visualization, as described in U.S. Pat. No. 6,649,166, Texier et al., J. Immunol., 2000, 164, 3177-3184 and Texier et al., Eur. J. Immunol., 2001, 31, 1837-1846, for the HLA-DR molecules, and in PCT international application WO 03/040299 and Castelli et al., J. Immunol., 2002, 169, 6928-6934, for the HLA-DP4 molecule. The use of these assays for measuring the binding activity of peptides derived from various antigens is illustrated in U.S. Pat. No. 6,649,166 and PCT international applications WO 02/090382, WO 03/040299 and WO 2004/014936.
The sensitivity of each assay is reflected by the IC50 values observed with the nonbiotinylated peptides which correspond to the tracers; the IC50 values of the tracers vary by a factor of less than three.

[6] = biological target: HLA-DR7 (DRB1*0701) (Homo sapiens, UniProt P01903+P01911, A100R/A102G/A103Q/D57E/D86V/E43K/F76Y/K127E/L162R/M171V/P40G/Q125H/Q99D/R33Q/R42Y/R54Q/S133A/S66F/T210M/V115G/Y107V/Y59L/Y89S); test: biochemical; details: competition with biotinylated tracer; 3 independent experiments; read-out: Binding activity DR7 (IC50)
[7] = biological target: HLA-DRB3 (DRB3*0101) (Homo sapiens, UniProt P01903+P79483); test: Competitive HLA II/peptide binding assay, HLA-DRB3; details: competition with biotinylated tracer; 3 independent experiments
[8] = biological target: HLA-DR15 (DRB1*1501) (Homo sapiens, UniProt P01903+P01911); test: Competitive HLA II/peptide binding assay, HLA-DR15; details: competition with biotinylated tracer; 3 independent experiments
[9] = biological target: HLA-DR1 (DRB1*0101) (Homo sapiens, UniProt P01903+P01911, A100R/D57E/F55L/F60I/F76Y/I96L/L162R/M171V/P40L/Q125E/R42F/V115G/Y59C); test: Competitive HLA II/peptide binding assay, HLA-DR1; details: competition with biotinylated tracer; 3 independent experiments
[10] = biological target: HLA-DR13 (DRB1*1301) (Homo sapiens, UniProt P01903+P01911, A100E/A169T/K41T/L162R/M171V/P40S/Q125H/Q178H/Q39Y/Q99D/R42S/S66N/T262R/W38E/Y61H); test: Competitive HLA II/peptide binding assay, HLA-DR13; details: competition with biotinylated tracer; 3 independent experiments; read-out: Binding activity DR13 (IC50)
[11] = biological target: T1, HLA-DP401 (DP*0401) (Homo sapiens, UniProt P04440+P20036); test: biochemical; details: competition with biotinylated tracer; 3 independent experiments; read-out: Binding activity DP401 (IC50)
T1 sequence (P04440 30-258): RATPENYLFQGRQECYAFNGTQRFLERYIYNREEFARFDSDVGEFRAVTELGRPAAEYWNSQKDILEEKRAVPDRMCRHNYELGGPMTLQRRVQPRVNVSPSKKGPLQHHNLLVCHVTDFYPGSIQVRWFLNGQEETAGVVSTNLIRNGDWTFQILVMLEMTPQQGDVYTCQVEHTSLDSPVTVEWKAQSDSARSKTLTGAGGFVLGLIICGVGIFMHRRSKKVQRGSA
T1 sequence (P20036 29-260): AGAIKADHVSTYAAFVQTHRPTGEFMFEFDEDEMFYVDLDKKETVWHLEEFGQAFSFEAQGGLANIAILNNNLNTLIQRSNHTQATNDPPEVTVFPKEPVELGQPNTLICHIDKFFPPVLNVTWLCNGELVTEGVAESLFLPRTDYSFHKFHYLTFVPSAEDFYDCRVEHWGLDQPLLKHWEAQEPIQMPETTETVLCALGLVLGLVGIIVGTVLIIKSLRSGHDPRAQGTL

[12] = biological target: T2, HLA-DP402 (DP*0402) (Homo sapiens, UniProt P04440+P20036, A65V/A84D/A85E/L207M); test: biochemical; details: competition with biotinylated tracer; 3 independent experiments; read-out: Binding activity DP402 (IC50)
T2 sequence (P04440 30-258 A65V/A84D/A85E): T1 sequence (P04440 30-258) with A36V, A55D, A56E
T2 sequence (P20036 29-260): T1 sequence (P20036 29-260)

[13] = biological target: HLA-DR11 (DRB1*1101) (Homo sapiens, UniProt P01903+P01911, A100R/A169T/A87E/I96F/K41T/L162R/M171V/P40S/Q125H/Q178H/Q39Y/Q99D/R42S/S66Y/T262R/V115G/W38E); test: biochemical; details: competition with biotinylated tracer; 3 independent experiments; read-out: Binding activity DR11 (IC50)

In the case of CC(C)C[C@H](NC(=O)[C@H](Cc1ccccc1)NC(=O)[C@@H]1CCCN1C(=O)[C@H](CCC(N)=O)NC(=O)[C@H](Cc1c[nH]c2ccccc12)NC(=O)[C@H](C)NC(=O)[C@@H]1CCCN1C(=O)[C@@H]1CCCN1C(=O)[C@H](CC(C)C)NC(=O)[C@@H](NC(=O)[C@@H]1CCCN1)[C@@H](C)O)C(=O)N[C@@H](CCCCN)C(=O)N[C@@H](CC(=O)O)C(=O)N[C@@H](Cc1c[nH]cn1)C(=O)N[C@@H](CCCNC(=N)N)C(=O)O [4-18, P T L P P A W Q P F L K D H R], the pIC50 [1] was < 4.00, the pIC50 [2] was < 4.00 and the pIC50 [3] was < 4.00. The pIC50 [4] was 5.26, the “Binding specificity for HLA II molecules” value [5] was “bind only to the HLA-DR11 molecule” and the “No. of molecules fixed” value [5] was 1. The pIC50 [6] was < 4.00, the pIC50 [7] was < 4.00 and the pIC50 [8] was < 4.00. For the same molecule, the pIC50 [9] was 4.35.

With “AGFIHCPTENEPDLA [peptide 41-55, A G F I H C P T E N E P D L A]” the pIC50 [10] was < 4.00, the pIC50 [2] was < 4.00 and the pIC50 [3] was 5.30. The “Binding specificity for HLA II molecules” value [5] was “binds only to the HLA-DRB4 molecule”, the “No. of molecules fixed” value [5] was 1 and the pIC50 [11] was < 4.00. The pIC50 [12] was < 4.00.

“DPIEEHKKHSSGCAF [72-86, D P I E E H K K H S S G C A F]” was tested, and the pIC50 [1] was < 4.00, the pIC50 [2] was < 4.00 and the pIC50 [13] was < 4.00. The pIC50 [3] was < 4.00, the “No. of molecules fixed” value [5] was 0 and the pIC50 [6] was < 4.00. For the same molecule, the pIC50 [11] was < 4.00, the pIC50 [7] was < 4.00 and the pIC50 [12] was < 4.00. The pIC50 [8] was < 4.00.

For “EGWEPDDDPIEEHKK [65-79, E G W E P D D D P I E E H K K]”, the pIC50 [1] was < 4.00, the pIC50 [10] was < 4.00 and the pIC50 [2] was < 4.00. The pIC50 [13] was < 4.00, the pIC50 [3] was < 4.00 and the pIC50 [4] was < 4.00. The “No. of molecules fixed” value [5] was 0, the pIC50 [6] was < 4.00 and the pIC50 [11] was < 4.00. For the same molecule, the pIC50 [7] was < 4.00, the pIC50 [12] was < 4.00 and the pIC50 [8] was < 4.00. The pIC50 [9] was < 4.00.

With “ERMAEAGFIHCPTEN [36-50, E R M A E A G F I H C P T E N]” the pIC50 [10] was < 4.00, the pIC50 [2] was < 4.00 and the pIC50 [3] was 4.77. The “No. of molecules fixed” value [5] was 0, the pIC50 [6] was 4.77 and the pIC50 [7] was < 4.00. The pIC50 [8] was < 4.00.

For “FCFKELEGWEPDDDP [59-73, F C F K E L E G W E P D D D P]”, the pIC50 [1] was < 4.00, the pIC50 [10] was < 4.00 and the pIC50 [2] was < 4.00. The pIC50 [4] was 4.35, the “No. of molecules fixed” value [5] was 0 and the pIC50 [11] was < 4.00. The pIC50 [7] was < 4.00, the pIC50 [12] was < 4.00 and the pIC50 [8] was 5.10.

Molecule “GEFLKLDRERAKNKI [99-113, G E F L K L D R E R A K N K I]” has a pIC50 [1] of 4.66, a pIC50 [13] of 7.40 and a pIC50 [4] of 7.66. For the same molecule, the “No. of molecules fixed” value [5] was 3, the pIC50 [7] was < 4.00 and the pIC50 [12] was < 4.00. For the same molecule, the pIC50 [8] was 5.92.

“KEFEETAKKVRRAIE [122-136, K E F E E T A K K V R R A I E]” was tested, and the pIC50 [1] was < 4.00, the pIC50 [3] was < 4.00 and the “No. of molecules fixed” value [5] was 3. For the same molecule, the pIC50 [6] was 4.70, the pIC50 [11] was < 4.00 and the pIC50 [7] was < 4.00. The pIC50 [12] was < 4.00 and the pIC50 [8] was 5.92.

In the case of “KELEGWEPDDDPIEE [62-76, K E L E G W E P D D D P I E E]”, the pIC50 [1] was < 4.00, the pIC50 [10] was < 4.00 and the pIC50 [2] was < 4.00. The pIC50 [13] was < 4.00, the pIC50 [3] was < 4.00 and the pIC50 [4] was < 4.00. The “No. of molecules fixed” value [5] was 0, the pIC50 [6] was < 4.00 and the pIC50 [11] was < 4.00. For the same molecule, the pIC50 [7] was 4.54, the pIC50 [12] was < 4.00 and the pIC50 [8] was 4.19. For the same molecule, the pIC50 [9] was < 4.00.

In the case of “KQFEELTLGEFLKLD [91-105, K Q F E E L T L G E F L K L D]”, the pIC50 [1] was < 4.00, the pIC50 [10] was < 4.00 and the pIC50 [2] was < 4.00. For the same molecule, the pIC50 [13] was 5.63, the “Binding specificity for HLA II molecules” value [5] was “high affinity for the DR1, DR7, DRB5, DP401 and DP402 molecules” and the “No. of molecules fixed” value [5] was 5. It also gave a pIC50 [7] of 4.52.

With “LKLDRERAKNKIAKE [102-116, L K L D R E R A K N K I A K E]” the pIC50 [1] was < 4.00, the pIC50 [10] was < 4.00 and the pIC50 [2] was < 4.00. The pIC50 [3] was < 4.00, the pIC50 [4] was 7.74 and the “No. of molecules fixed” value [5] was 1. For the same molecule, the pIC50 [11] was < 4.00, the pIC50 [7] was < 4.00 and the pIC50 [12] was < 4.00. For the same molecule, the pIC50 [8] was < 4.00.

In the case of “MGAPTLPPAWQPFLK [1-15, M G A P T L P P A W Q P F L K]”, the pIC50 [1] was < 4.00, the pIC50 [10] was < 4.00 and the pIC50 [2] was < 4.00. For the same molecule, the pIC50 [3] was < 4.00, the pIC50 [4] was 5.10 and the “Binding specificity for HLA II molecules” value [5] was “bind only to the HLA-DR11 molecule”. The “No. of molecules fixed” value [5] was 1, the pIC50 [6] was < 4.00 and the pIC50 [7] was < 4.00.
